Measurements from patent US6579519B2, “Sustained release and long residing ophthalmic formulation and the process of preparing the same” (Registrar, University of Delhi, priority 2000, dated 2003).

Test: Maximum drug dissolved in polymeric micelles
Type: physicochemical
Conditions: room temperature
Procedure: In 100 mg of the lyophilized powder of the polymeric micelles nanoparticles, an alcoholic solution of indomethacin ([Indomethacin]=33 mg/ml) was added with constant stirring to get clear solution of polymeric micelles containing the drug of desired concentration dispersed in aqueous buffer. […] The drug loaded polymeric micelles was then lyophilized to get dry powder for subsequent use.
In 100 mg of dry powder of polymeric micelles, an alcoholic solution of nimesulide ([nimesulide]=10 mg/ml) was added with constant stirring to get clear solution. […] The drug loaded micelles was then lyophilized to get dry powder for subsequent use.

| Maximum of the drug dissolved in polymeric micelles [% w/w] | SMILES |
| --- | --- |
| 8 | CS(=O)(=O)Nc1ccc([N+](=O)[O-])cc1Oc1ccccc1 [nimesulide, N-(4-nitro-2 phenoxyphenyl) methanesulphonamide] |
| 10 | COc1ccc2c(c1)c(CC(=O)O)c(C)n2C(=O)c1ccc(Cl)cc1 [indomethacin, 1-(4 chlorobenzoyl)-5 methoxy-2-methyl-1H-indole-3acetic acid] |
